According to article PMC5656653, “Evaluation of Ga-DOTA-(D-Asp)n as bone imaging agents: D-aspartic acid peptides as carriers to bone” (Scientific Reports, 2017):
Read-outs that look alike come from different tables or passages of the source. Where a SMILES comes first, the peptide text is derived from it. [ ]: non-standard residue; d: D form. The star is where a group is joined. DOTA = O=C(O)CN1CCN(CC(=O)O)CCN(CC(=O)*)CCN(CC(=O)O)CC1

Experiment: Biodistribution experiments in normal mice after i.v. injection
Format: in vivo
Settings: i.v.; for tissue uptake dose at 10 min / tissue uptake dose at 1 h / tissue uptake dose at 3 h: male, ddY, mouse, in vivo, iv, total radioactivity; for tissue uptake dose at 10 min / tissue uptake dose at 1 h / tissue uptake dose at 3 h / F/B ratio (Femur:blood ratio): mice, mean (SD)
Protocol: Experiments with animals were conducted in strict accordance with the Guidelines for the Care and Use of Laboratory Animals of Kanazawa University. The animal experimental protocols used were approved by the Committee on Animal Experimentation of Kanazawa University (Permit Number: AP-132633). Biodistribution experiments were performed after intravenous administration of each diluted tracer solution (37–740 kBq/100 μL) to 6-week-old male ddY mice (27–32 g, Japan SLC, Inc., Hamamatsu, Japan). Four or five mice at each time point after the administration of each compound were sacrificed by decapitation at 10, 60, and 180 min post-injection. Tissues of interest were taken and weighed. Complete left femurs were isolated as representative bone samples, radioactivity was determined using gamma counters (AccuFLEX γ ARC-8001 in the case of ^18F, Hitachi, Ltd.), and background counts and physical decay were corrected during counting.

O=C(O)C[C@@H](NC(=O)[C@@H](CC(=O)O)NC(=O)[C@@H](CC(=O)O)NC(=O)[C@@H](CC(=O)O)NC(=O)[C@@H](CC(=O)O)NC(=O)[C@@H](CC(=O)O)NC(=O)[C@@H](CC(=O)O)NC(=O)[C@@H](CC(=O)O)NC(=O)[C@@H](CC(=O)O)NC(=O)[C@@H](CC(=O)O)NC(=O)[C@@H](CC(=O)O)NC(=O)CN1CCN(CC(=O)O)CCN(CC(=O)O)CCN(CC(=O)O)CC1)C(=O)O [^67Ga-DOTA-(D-Asp)11, metal not drawn] ({DOTA}-[dD][dD][dD][dD][dD][dD][dD][dD][dD][dD][dD]-OH)
tissue uptake dose at 10 min (10 min after injection, footnote b, read-out: Biodistribution of radioactivity, Stomach): 0.18 %ID | tissue uptake dose at 10 min (10 min after injection, read-out: Biodistribution of radioactivity, Blood): 1.71 %ID | tissue uptake dose at 10 min (10 min after injection, read-out: Biodistribution of radioactivity, Bone (Femur)): 11.9 %ID | tissue uptake dose at 10 min (10 min after injection, read-out: Biodistribution of radioactivity, Brain): 0.05 %ID | tissue uptake dose at 10 min (10 min after injection, read-out: Biodistribution of radioactivity, Heart): 0.65 %ID | tissue uptake dose at 10 min (10 min after injection, read-out: Biodistribution of radioactivity, Kidney): 12.8 %ID | tissue uptake dose at 10 min (10 min after injection, read-out: Biodistribution of radioactivity, Large-intestine): 0.28 %ID | tissue uptake dose at 10 min (10 min after injection, read-out: Biodistribution of radioactivity, Liver): 0.51 %ID | tissue uptake dose at 10 min (10 min after injection, read-out: Biodistribution of radioactivity, Lung): 1.24 %ID | tissue uptake dose at 10 min (10 min after injection, read-out: Biodistribution of radioactivity, Muscle): 0.58 %ID | tissue uptake dose at 10 min (10 min after injection, read-out: Biodistribution of radioactivity, Pancreas): 0.53 %ID | tissue uptake dose at 10 min (10 min after injection, read-out: Biodistribution of radioactivity, Small-intestine): 0.38 %ID | tissue uptake dose at 10 min (10 min after injection, read-out: Biodistribution of radioactivity, Spleen): 0.44 %ID | tissue uptake dose at 1 h (60 min after injection, footnote b, read-out: Biodistribution of radioactivity, Stomach): 0.04 %ID | tissue uptake dose at 1 h (60 min after injection, read-out: Biodistribution of radioactivity, Blood): 0.14 %ID | tissue uptake dose at 1 h (60 min after injection, read-out: Biodistribution of radioactivity, Bone (Femur)): 15.3 %ID | tissue uptake dose at 1 h (60 min after injection, read-out: Biodistribution of radioactivity, Brain): 0.01 %ID | tissue uptake dose at 1 h (60 min after injection, read-out: Biodistribution of radioactivity, Heart): 0.04 %ID | tissue uptake dose at 1 h (60 min after injection, read-out: Biodistribution of radioactivity, Kidney): 2.92 %ID | tissue uptake dose at 1 h (60 min after injection, read-out: Biodistribution of radioactivity, Large-intestine): 0.03 %ID | tissue uptake dose at 1 h (60 min after injection, read-out: Biodistribution of radioactivity, Liver): 0.2 %ID | tissue uptake dose at 1 h (60 min after injection, read-out: Biodistribution of radioactivity, Lung): 0.08 %ID | tissue uptake dose at 1 h (60 min after injection, read-out: Biodistribution of radioactivity, Muscle): 0.18 %ID | tissue uptake dose at 1 h (60 min after injection, read-out: Biodistribution of radioactivity, Pancreas): 0.09 %ID | tissue uptake dose at 1 h (60 min after injection, read-out: Biodistribution of radioactivity, Small-intestine): 0.07 %ID | tissue uptake dose at 1 h (60 min after injection, read-out: Biodistribution of radioactivity, Spleen): 0.13 %ID | tissue uptake dose at 3 h (180 min after injection, footnote b, read-out: Biodistribution of radioactivity, Stomach): 0.02 %ID | tissue uptake dose at 3 h (180 min after injection, read-out: Biodistribution of radioactivity, Blood): 0.08 %ID | tissue uptake dose at 3 h (180 min after injection, read-out: Biodistribution of radioactivity, Bone (Femur)): 15.4 %ID | tissue uptake dose at 3 h (180 min after injection, read-out: Biodistribution of radioactivity, Brain): 0.02 %ID | tissue uptake dose at 3 h (180 min after injection, read-out: Biodistribution of radioactivity, Heart): 0.03 %ID | tissue uptake dose at 3 h (180 min after injection, read-out: Biodistribution of radioactivity, Kidney): 1 %ID | tissue uptake dose at 3 h (180 min after injection, read-out: Biodistribution of radioactivity, Large-intestine): 0.11 %ID | tissue uptake dose at 3 h (180 min after injection, read-out: Biodistribution of radioactivity, Liver): 0.13 %ID | tissue uptake dose at 3 h (180 min after injection, read-out: Biodistribution of radioactivity, Lung): 0.05 %ID | tissue uptake dose at 3 h (180 min after injection, read-out: Biodistribution of radioactivity, Muscle): 0.06 %ID | tissue uptake dose at 3 h (180 min after injection, read-out: Biodistribution of radioactivity, Pancreas): 0.04 %ID | tissue uptake dose at 3 h (180 min after injection, read-out: Biodistribution of radioactivity, Small-intestine): 0.05 %ID | tissue uptake dose at 3 h (180 min after injection, read-out: Biodistribution of radioactivity, Spleen): 0.1 %ID | F/B ratio (Femur:blood ratio) (10 min after injection): 7.01 (0.56) | F/B ratio (Femur:blood ratio) (60 min after injection): 147.10 (71.25) | F/B ratio (Femur:blood ratio) (180 min after injection): 248.95 (170.64) | Accumulation of radioactivity in bone (in words) (normal mice): high accumulation and retention of radioactivity in bone
